Source: EP0580252A2, “Improvements in or relating to pectin methyl esterase” (QUEST INTERNATIONAL B.V., priority 1992, dated 1994)

Columns and labels:
[1] = system: PMEs (papain PME, ficin PME and other known plant PMEs); test: Inhibition of PME activity by galacturonic acid; assay type: biochemical; settings: up to concentrations of 25 gl⁻¹
[2] = system: papain derived PME (pectin methyl esterase); test: Inhibition test with tyrosine selective inhibitor N-acetyl-imidazole; assay type: biochemical, papaya; settings: NAI 1.4mg.100 ml; 1% pectin (5% for papain also); enzyme 0.005-0.088%
Protocol: (§1) Bacterial and plant derived PMEs were tested for inhibition by N-acetyl-imidazole (NAI), a tyrosine selective inhibitor.
(§2) Inhibition by N-acetyl-imidazole was carried out in three different ways: by addition of the NAI to enzyme solution, to pectin solution, and to mixed enzyme and substrate. Typically we used 1% pectin (5% for papain also), enzyme concentrations of 0.005-0.088% and NAI concentrations of 1.4mg.100 ml.

[3] = system: ficin derived PME (pectin methyl esterase); test: as above; assay type: biochemical, fig; settings: NAI 1.4mg.100 ml; 1% pectin; enzyme 0.005-0.088%
Protocol: as §1, §2

[4] = system: bromelain derived PME (pectin methyl esterase); test: as above; assay type: biochemical, bromelard; settings: NAI 1.4mg.100 ml; 1% pectin; enzyme 0.005-0.088%
Protocol: as §1, §2

[5] = system: WGL (wheat germ lipase) derived PME (pectin methyl esterase); test: as above; assay type: biochemical; settings: NAI 1.4mg.100 ml; 1% pectin; enzyme 0.005-0.088%
Protocol: as §1, §2

bacterial PMEs = test: as above; assay type: biochemical; settings: NAI 1.4mg.100 ml; 1% pectin; enzyme 0.005-0.088%
Protocol: as §1, §2

orange PME = test: as above; assay type: biochemical; settings: NAI 1.4mg.100 ml; 1% pectin; enzyme 0.005-0.088%
Protocol: as §1, §2

tomato PME = test: as above; assay type: biochemical; settings: NAI 1.4mg.100 ml; 1% pectin; enzyme 0.005-0.088%
Protocol: as §1, §2

papain PME = test: Effect of methanol (reaction product) on PME activity; assay type: biochemical, papaya; settings: methanol concentration not stated

## galacturonic acid
[1]
  inhibition by galacturonic acid: None of the PMEs is inhibited

## CC(=O)n1ccnc1 [NAI, N-acetyl-imidazole]
[2]
  inhibition by NAI: not to be inhibited
[3]
  inhibition by NAI: not to be inhibited
[4]
  inhibition by NAI: not to be inhibited
[5]
  inhibition by NAI: not to be inhibited
Bacterial PMEs
  inhibition by NAI: inhibited
Orange PME
  inhibition by NAI: inhibited
Tomato PME
  inhibition by NAI: inhibited

## CO [methanol]
Papain PME; 1% pectin
  inhibition by methanol: inhibited
Papain PME; 5% pectin
  inhibition by methanol: hardly noticed
Papain PME
  inhibition by methanol: under certain conditions is inhibited and YES
